Measured values: US10736883B2, “Triazole furan compounds as agonists of the APJ receptor” (AMGEN INC., priority 2016, dated 2020)

Columns and labels:
[1] = tested on: ex vivo naive Sprague Dawley rat hearts; test: Langendorff isolated perfused rat heart (ex vivo); details: Langendorff apparatus; for left ventricular dP/dtmax (cardiac contractility) / left ventricular dP/dtmin (cardiac relaxation): isolated perfused rat hearts, compared with vehicle / control (DMSO)
Source text: FIG. 1A is a graph of left ventricular dP/dtmax as a function of concentration of Example 210.0 compared with vehicle in ex vivo naive Sprague Dawley rat hearts obtained using the Langendorff apparatus.
FIG. 1B is a graph of left ventricular dP/dtmin as a function of concentration of Example 210.0 compared with vehicle in ex vivo naive Sprague Dawley rat hearts obtained using the Langendorff apparatus.
FIG. 2A is a graph of left ventricular dP/dtmax as a function of concentration of Example 51.0 compared with vehicle in ex vivo naive Sprague Dawley rat hearts obtained using the Langendorff apparatus.
FIG. 2B is a graph of left ventricular dP/dtmin as a function of concentration of Example 51.0 compared with vehicle in ex vivo naive Sprague Dawley rat hearts obtained using the Langendorff apparatus.

[2] = biological target: T1, APJ receptor (Homo sapiens (Human), UniProt P35414); test: [35S]GTPγS binding assay on membranes from CHO cells stably expressing human APJ receptor; format: biochemical; details: membranes of CHO cells stably expressing human APJ receptor, means of several independent experiments, read-out: Activity hAPJ SPA EC50 IP
Summary of the method: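 EC50 values were obtained by non-linear regression of [35S]GTPγS (0.2 nM) binding after 90 min at RT, with nonspecific binding defined by 100 μM GTPγS. Reactions used human APJ–expressing CHO cell membranes on WGA PS beads in HEPES pH 7.5 buffer with 5 mM MgCl2, 200 mM NaCl, 3 μM GDP and 0.1% BSA.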

[3] = tested on: isolated perfused rat hearts; test: Ex vivo isolated perfused rat heart (Langendorff) assay, load independent inotropic/lusitropic effects; details: percent change over vehicle; for Isolated Heart Assay dP/dtmax (%): contractility; for Isolated Heart Assay dP/dtmin (%): relaxation
Source text: Evidence for Load Independent Inotropic Effects with APJ Agonists Using Ex Vivo Assay (Isolated Perfused Rat Hearts)
Naive Sprague Dawley® SD rats (Harlan laboratories (Livermore, Calif. USA)) were anaesthetized and hearts were excised followed by cannulation in the Langendorff apparatus (Harvard apparatus, Holliston, Mass. USA) via aorta. The heart was perfused retrograde with modified oxygenated Krebs-Henseleit buffer (Skrzypiec-Spring M et al., (2007) J. Pharmacol Toxicol Methods 55: 113-126). The pressure of the solution causes the aortic valve to shut and the perfusate is then forced into the ostium and the coronary vessels. This allows the heart to beat for several hours. A balloon was inserted into the left ventricle (LV) to measure dP/dtmax (derivative of left ventricular pressure) as an index of cardiac contractility. The APJ agonist was perfused constantly in a dose dependent manner into the heart to examine cardiac contractility.
Example 210.0 was infused at different concentrations and load independent contractility was measured by index of LV dP/dtmax and the results are expressed as a percent change over vehicle. […] Example 210.0 was infused at different concentrations and load independent lusitropic effect (relaxation) was measured by index of LV dP/dtmin where results are expressed as percent change over vehicle. […] Example 51.0 was infused at different concentrations and load independent contractility was measured by index of LV dP/dtmax and the results are expressed as a percent change over vehicle. […] Example 51.0 was infused at different concentrations and load independent lusitropic effect (relaxation) was measured by index of LV dP/dtmin where results are expressed as percent change over vehicle.

[4] = tested on: heart failure rat model; test: In vivo cardiac contractility in heart failure (MI) rat model; details: heart failure rats (LAD ligation), acute administration for 30 min
Method: Evidence for Improvement in Cardiac Contractility In Vivo in Heart Failure Rat Model
Based on the ex vivo findings in isolated heart assay, APJ agonists were dosed in vivo to investigate the translation of cardiac contractility in in vivo settings. Male Lewis rats (Charles River, USA) at 2-3 months of age were used for the study. Heart failure was induced by permanent ligation of the left descending coronary artery which results in injury to the heart with an ejection fraction of <35%. APJ agonists were administered dose dependently acutely for a period of 30 min. Administration of example compounds lead to an increase in cardiac contractility as measured by dP/dtmax (derivative of left ventricular pressure) (Table 27).

[5] = biological target: T1, APJ receptor; details: apelin-36, apelin-17 and apelin-13 compared; cited from earlier work
[6] = tested on: isolated rat heart; test: Isolated rat heart assay with APJ agonist in the presence or absence of AT1R blocker losartan
Source text: Evidence for Blockade of AT1R Signaling Enhances the APJ Receptor Signaling Using Ex-Vivo (Isolated Rat Heart Assay) and In Vivo (Myocardial Infraction (MI)-Induced Heart Failure Model)
Naive Sprague Dawley® SD rats were anaesthetized and hearts were excised followed by cannulation in the Langendorff apparatus via aorta. The heart was perfused retrograde with modified oxygenated Krebs-Henseleit buffer. The pressure of the solution causes the aortic valve to shut and the perfusate was then forced into the ostium and the coronary vessels. This allowed the heart to beat for several hours. A balloon was inserted into the left ventricle to measure dp/dtmax as an index of cardiac contractility. The APJ agonist (Example 56.0) was perfused in the presence or absence of AT1R blocker losartan.

[7] = tested on: MI-induced heart failure rats; test: Cardiovascular effects of Example 56.0 and captopril/losartan on MI-induced heart failure rats; format: in vivo, rat
Method: Cardiovascular Effects of Example 56.0 and Captopril/Losartan on MI-Induced Heart Failure Rats
Male Lewis rats at 2-3 months of age were used for the study. MI was induced by ligation of the LAD. Echocardiography (Echo) was performed at one-week post-MI on rats for verification of infarct size and animal enrollment Animals with ejection fractions more than 40% or no visible infarct in myocardium were excluded from the study. All eligible MI rats were randomly divided into 3 groups: 1) those treated with vehicle; 2) those treated with losartan (0.5 g/L in drink water); and 3) those treated with captopril (0.5 g/L in drink water). Treatments were initiated approximately five weeks post-MI and animals were continuously treated with losartan and captopril in drinking water up to 15 days prior to being assigned into each subgroup. These subgroup groups included the following: 1) cohort treated with vehicle; 2) cohort treated with Example 56.0 at various doses; 3) cohort treated only with losartan; 4) cohort treated with losartan and Example 56.0 at various doses; 5) cohort treated only with captopril; and 6) cohort treated with captopril and Example 56.0 at various doses. A Millar PV catheter was inserted into the right common carotid artery and then advanced to the left ventricle (LV) for cardiac hemodynamic assessment and the peripheral arterial pressure was also monitored by a pressure transducer via a femoral artery access in all rats. Following hemodynamic stabilization, baseline steady-state data was acquired Animals in any Example 56 treated group received intravenous infusion of Example 56.0 in a dose-escalated fashion during cardiac hemodynamic assessment. Blood was drawn for actual PK exposure to derive a PK/PD profile.

[8] = Example 56.0 alone over vehicle, intravenous infusion, MI rats
[9] = losartan alone compared to control (DMSO)

T1 sequence (P35414 whole entry): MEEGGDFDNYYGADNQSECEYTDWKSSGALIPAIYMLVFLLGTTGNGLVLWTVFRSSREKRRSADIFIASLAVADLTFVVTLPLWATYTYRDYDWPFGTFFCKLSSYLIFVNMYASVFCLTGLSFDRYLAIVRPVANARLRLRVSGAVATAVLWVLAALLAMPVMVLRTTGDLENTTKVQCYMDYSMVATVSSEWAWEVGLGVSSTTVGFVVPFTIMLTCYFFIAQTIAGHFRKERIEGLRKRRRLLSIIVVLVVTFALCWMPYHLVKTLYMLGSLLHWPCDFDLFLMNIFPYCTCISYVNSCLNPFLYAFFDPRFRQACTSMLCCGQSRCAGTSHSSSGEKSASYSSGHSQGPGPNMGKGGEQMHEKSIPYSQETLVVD

| Molecule | EC50 [2] [nM] | Isolated Heart Assay dP/dtmax (%) [3] [%] | Isolated Heart Assay dP/dtmin (%) [3] [%] | MI Rat Model dP/dtmax (%) [4] | further results |
| --- | --- | --- | --- | --- | --- |
| COc1cccc(OC)c1-n1c(NS(=O)(=O)CCc2ccc(F)cc2C#N)nnc1-c1ccco1 [Example 210.0, 2-(2-Cyano-4-fluorophenyl)-N-(4-(2,6-dimethoxyphenyl)-5-(2-furanyl)-4H-1,2,4-triazol-3-yl)ethanesulfonamide] | 3.2 | 25.9 | 34.0 | 95.6% | left ventricular dP/dtmax (cardiac contractility) [1]: increases load independent cardiac contractility; left ventricular dP/dtmin (cardiac relaxation) [1]: increases load independent cardiac relaxation |
| apelin-17 |  |  |  |  | in vitro activity (relative potency) [5]: approximately equipotent |
| COc1cccc(OC)c1-n1c(NS(=O)(=O)CCN2C(=O)N(C)CC[C@@H]2C)nnc1-c1ccc(C)o1 (single isomer, unassigned) [Example 204.0, N-(4-(2,6-Dimethoxyphenyl)-5-(5-methyl-2-furanyl)-4H-1,2,4-triazol-3-yl)-2-((6S)-3,6-dimethyl-2-oxotetrahydro-1 (2H)-pyrimidinyl)ethanesulfonamide ethanesulfonamide or N-(4-(2,6-dimethoxyphenyl)-5-(5-methyl-2-furanyl)-4H-1,2,4-triazol-3-yl)-2-((6R)-3,6-dimethyl-2-oxotetrahydro-1(2H)-pyrimidinyl)ethanesulfonamide] | 0.26 | 24.6 | 29.0 | No effect |  |
| COc1cccc(OC)c1-n1c(NS(=O)(=O)[C@@H](C)[C@H](C)c2ncc(F)cn2)nnc1-c1ccc(C)o1 [Example 56.0, (2S,3R)—N-(4-(2,6-dimethoxyphenyl)-5-(5-methyl-2-furanyl)-4H-1,2,4-triazol-3-yl)-3-(5-fluoro-2-pyrimidinyl)-2-butanesulfonamide] | 0.071 | 23.0 | 24.9 | 30% | inotropic effects ([6]; APJ agonist alone): dose-dependent increase; Emax on co-infusion of AT1R blocker losartan ([6]; co-infusion of losartan): increased; increase of potency on co-infusion of AT1R blocker losartan ([6]; co-infusion of losartan): 5 fold; heart rate ([7]; Example 56.0 alone or in combination with an ARB or ACE inhibitor, MI rats): did not significantly change; dp/dtmax [7, 8]: increase; ejection fraction [7, 8]: increase; contractile function ([7]; plus losartan or captopril, over Example 56.0 therapy alone, MI rats): further augmented |
| C[C@H](CS)C(=O)N1CCC[C@H]1C(=O)O [Captopril, captopril, reference compound] |  |  |  |  | contractility or ejection fraction ([7]; captopril alone, acute settings, heart failure rats in vivo): does not show a marked improvement |
| COc1cccc(OC)c1-n1c(NS(=O)(=O)CCc2ncc(C)cn2)nnc1-c1ccc(C)o1 [Example 26.0, N-(4-(2,6-dimethoxyphenyl)-5-(5-methyl-2-furanyl)-4H-1,2,4-triazol-3-yl)-2-(5-methyl-2-pyrimidinyl)ethanesulfonamide] | 0.42 | 10.20 | 11.1 | 58% |  |
| CCCCc1nc(Cl)c(CO)n1Cc1ccc(-c2ccccc2-c2nn[nH]n2)cc1 [losartan] |  |  |  |  | left ventricular (LV) developed pressure (DevP) ([1]; compared with control (DMSO)): no impact on developed pressure; left ventricular (LV) systolic pressure (Sys) ([1]; compared with control (DMSO)): no impact on systolic pressure; left ventricular dP/dtmax (cardiac contractility) [1]: no impact on cardiac contraction; left ventricular dP/dtmin (cardiac relaxation) [1]: no impact on cardiac relaxation; cardiac contraction (dp/dtmax) [6, 9]: did not have any impact; cardiac relaxation (dp/dtmin) [6, 9]: did not have any impact; developed pressure (DevP) [6, 9]: did not have any impact; systolic pressure (Sys) [6, 9]: did not have any impact |
| COc1cccc(OC)c1-n1c(NS(=O)(=O)[C@@H](C)[C@H](O)c2ncc(F)cn2)nnc1-c1ccc(C)o1 [Example 115.0, (1R,2S)-N-(4-(2,6-dimethoxyphenyl)-5-(5-methylfuran-2-yl)-4H-1,2,4-triazol-3-yl)-1-(5-fluoropyrimidin-2-yl)-1-hydroxypropane-2-sulfonamide] | 0.2 | 32.6 | 34.7 | 30% |  |
| Apelin-36 (LVQPRGSRNGPGPWQGGRRKFRRQRPRLSHKGPMPF; Apelin-36; UniProt Q9ULZ1 42-77, looked up) |  |  |  |  | in vitro activity (relative potency) [5]: approximately equipotent |
